Results published in PubChem BioAssay (NCI).
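GI50 marks 50% less growth. TGI is the concentration that stops growth completely.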

Key:
Experiment in all cases: NCI tumour cell line growth inhibition, 384-well format
A498 renal = test system: A498 renal
A549 NSCLC = test system: A549 NSCLC
ACHN renal = test system: ACHN renal
CAKI-1 renal = test system: CAKI-1 renal
COLO 205 colon = test system: COLO 205 colon
EKVX NSCLC = test system: EKVX NSCLC
HCC-2998 colon = test system: HCC-2998 colon
HCT-116 colon = test system: HCT-116 colon
HCT-15 colon = test system: HCT-15 colon
HOP-92 NSCLC = test system: HOP-92 NSCLC
HS 578T breast = test system: HS 578T breast
HT29 colon = test system: HT29 colon
IGROV1 ovarian = test system: IGROV1 ovarian
K-562 leukemia = test system: K-562 leukemia
KM12 colon = test system: KM12 colon
LOX IMVI melanoma = test system: LOX IMVI melanoma
MALME-3M melanoma = test system: MALME-3M melanoma
MCF7 breast = test system: MCF7 breast
MDA-MB-231 breast = test system: MDA-MB-231 breast
MDA-MB-435 melanoma = test system: MDA-MB-435 melanoma
NCI-H226 lung = test system: NCI-H226 lung
NCI-H322M lung = test system: NCI-H322M lung
NCI-H522 lung = test system: NCI-H522 lung
OVCAR-3 ovarian = test system: OVCAR-3 ovarian
OVCAR-4 ovarian = test system: OVCAR-4 ovarian
OVCAR-5 ovarian = test system: OVCAR-5 ovarian
OVCAR-8 ovarian = test system: OVCAR-8 ovarian
PC-3 prostate = test system: PC-3 prostate
SF-268 CNS = test system: SF-268 CNS
SF-295 CNS = test system: SF-295 CNS
SK-MEL-2 melanoma = test system: SK-MEL-2 melanoma
SK-MEL-28 melanoma = test system: SK-MEL-28 melanoma
SK-MEL-5 melanoma = test system: SK-MEL-5 melanoma
SK-OV-3 ovarian = test system: SK-OV-3 ovarian
SN12C renal = test system: SN12C renal
SNB-19 CNS = test system: SNB-19 CNS
SNB-75 CNS = test system: SNB-75 CNS
SW-620 colon = test system: SW-620 colon
T-47D breast = test system: T-47D breast
TK-10 renal = test system: TK-10 renal
U251 glioblastoma = test system: U251 glioblastoma
UACC-257 melanoma = test system: UACC-257 melanoma
UACC-62 melanoma = test system: UACC-62 melanoma
UO-31 renal = test system: UO-31 renal

Q: `Nc1ccn(C2OC(CO)C(O)C2(F)F)c(=O)n1` (configuration not stated) was tested. Which TGI (A498 renal) did it give?
A: The TGI was greater than 100000 nM.

Q: And the TGI (A549 NSCLC)?
A: The TGI was greater than 100000 nM.

Q: What about the TGI (ACHN renal) of the same molecule?
A: Its TGI is less than 10.8 nM.

Q: And the TGI (CAKI-1 renal)?
A: The TGI was 173 nM.

Q: What about the GI50 (COLO 205 colon) of the same molecule?
A: Its GI50 is 27.7 nM.

Q: And the TGI (COLO 205 colon)?
A: Its TGI is 140 nM.

Q: And the GI50 (EKVX NSCLC)?
A: The GI50 was 8710 nM.

Q: What about the TGI (EKVX NSCLC) of the same molecule?
A: Its TGI is greater than 100000 nM.

Q: What about the TGI (HCC-2998 colon) of the same molecule?
A: The TGI was greater than 100000 nM.

Q: And the TGI (HCT-116 colon)?
A: The TGI was greater than 36900 nM.

Q: And the TGI (HCT-15 colon)?
A: The TGI was greater than 100000 nM.

Q: And the GI50 (HOP-92 NSCLC)?
A: Its GI50 is 40.7 nM.

Q: And the TGI (HOP-92 NSCLC)?
A: Its TGI is greater than 33100 nM.

Q: What about the GI50 (HS 578T breast) of the same molecule?
A: Its GI50 is less than 33.3 nM.

Q: What about the TGI (HS 578T breast) of the same molecule?
A: The TGI was greater than 40800 nM.

Q: What about the GI50 (HT29 colon) of the same molecule?
A: Its GI50 is less than 11.2 nM.

Q: What about the TGI (HT29 colon) of the same molecule?
A: Its TGI is 3040 nM.

Q: What about the TGI (IGROV1 ovarian) of the same molecule?
A: Its TGI is greater than 100000 nM.

Q: What about the TGI (K-562 leukemia) of the same molecule?
A: The TGI was greater than 100000 nM.

Q: What about the GI50 (KM12 colon) of the same molecule?
A: Its GI50 is 15.3 nM.

Q: What about the TGI (KM12 colon) of the same molecule?
A: Its TGI is greater than 100000 nM.

Q: And the TGI (LOX IMVI melanoma)?
A: Its TGI is 33 nM.

Q: What about the TGI (MALME-3M melanoma) of the same molecule?
A: Its TGI is greater than 22100 nM.

Q: And the TGI (MCF7 breast)?
A: Its TGI is greater than 100000 nM.

Q: What about the GI50 (MDA-MB-231 breast) of the same molecule?
A: The GI50 was 95.7 nM.

Q: What about the GI50 (MDA-MB-435 melanoma) of the same molecule?
A: Its GI50 is 301 nM.

Q: And the TGI (MDA-MB-435 melanoma)?
A: The TGI was greater than 100000 nM.

Q: What about the GI50 (NCI-H226 lung) of the same molecule?
A: Its GI50 is less than 16.2 nM.

Q: And the TGI (NCI-H226 lung)?
A: Its TGI is 73.4 nM.

Q: What about the GI50 (NCI-H322M lung) of the same molecule?
A: The GI50 was 1090 nM.

Q: And the TGI (NCI-H322M lung)?
A: Its TGI is greater than 100000 nM.

Q: What about the TGI (NCI-H522 lung) of the same molecule?
A: Its TGI is 5710 nM.

Q: And the TGI (OVCAR-3 ovarian)?
A: Its TGI is greater than 100000 nM.

Q: What about the GI50 (OVCAR-4 ovarian) of the same molecule?
A: Its GI50 is greater than 100000 nM.

Q: What about the TGI (OVCAR-4 ovarian) of the same molecule?
A: Its TGI is greater than 100000 nM.

Q: And the GI50 (OVCAR-5 ovarian)?
A: Its GI50 is 48.1 nM.

Q: What about the TGI (OVCAR-5 ovarian) of the same molecule?
A: The TGI was greater than 100000 nM.

Q: What about the TGI (OVCAR-8 ovarian) of the same molecule?
A: Its TGI is less than 33.5 nM.

Q: And the GI50 (PC-3 prostate)?
A: The GI50 was greater than 100000 nM.

Q: And the TGI (PC-3 prostate)?
A: Its TGI is greater than 100000 nM.

Q: And the TGI (SF-268 CNS)?
A: Its TGI is 18.5 nM.

Q: What about the GI50 (SF-295 CNS) of the same molecule?
A: The GI50 was less than 14.6 nM.

Q: And the TGI (SF-295 CNS)?
A: Its TGI is 25.4 nM.

Q: What about the TGI (SK-MEL-2 melanoma) of the same molecule?
A: The TGI was 15300 nM.

Q: And the TGI (SK-MEL-28 melanoma)?
A: The TGI was greater than 100000 nM.

Q: What about the TGI (SK-MEL-5 melanoma) of the same molecule?
A: The TGI was less than 16.8 nM.

Q: What about the GI50 (SK-OV-3 ovarian) of the same molecule?
A: Its GI50 is 31.8 nM.

Q: What about the TGI (SK-OV-3 ovarian) of the same molecule?
A: Its TGI is greater than 100000 nM.

Q: And the GI50 (SN12C renal)?
A: Its GI50 is 18.5 nM.

Q: And the TGI (SN12C renal)?
A: Its TGI is 64.9 nM.

Q: And the TGI (SNB-19 CNS)?
A: Its TGI is 517 nM.

Q: And the GI50 (SNB-75 CNS)?
A: Its GI50 is less than 15.5 nM.

Q: And the TGI (SNB-75 CNS)?
A: The TGI was less than 30.5 nM.

Q: And the GI50 (SW-620 colon)?
A: The GI50 was less than 15.8 nM.

Q: And the TGI (SW-620 colon)?
A: Its TGI is greater than 100000 nM.

Q: And the GI50 (T-47D breast)?
A: The GI50 was 552 nM.

Q: What about the TGI (T-47D breast) of the same molecule?
A: The TGI was greater than 100000 nM.

Q: And the TGI (TK-10 renal)?
A: Its TGI is greater than 100000 nM.

Q: What about the TGI (U251 glioblastoma) of the same molecule?
A: Its TGI is 25.2 nM.

Q: And the GI50 (UACC-257 melanoma)?
A: Its GI50 is less than 18.3 nM.

Q: What about the TGI (UACC-62 melanoma) of the same molecule?
A: Its TGI is 19.4 nM.

Q: And the TGI (UO-31 renal)?
A: Its TGI is less than 21.3 nM.
